Measured values as given in patent US11634396B2 (priority 2021, dated 2023).

Target: human mOR (Homo sapiens (Human), UniProt P35372)
Assay: cell-based
Conditions: not given
Description: CHO Tag-lite human mOR stable cell line from Cisbio (NCBI accession number: NM_000914.3, Bedford, Mass.) were seeded and grown to approximately 80% confluence in Ham F-12 with 10% FBS, 50 U/ml penicillin, 50 μg/ml streptomycin, 2 mM Hepes, and 1 mg/ml geneticin (Invitrogen, Carlsbad, Calif.). Cells were then harvested using accutase (Corning. Coming, N.Y.), centrifuged at 1300 RPM for 5 min, and plated at 5000 cells per 5 μL per well in a 5× dilution of stimulation buffer consisting of the HTRF cAMP Gi kit, water and IBMX at 0.5 mM (Cisbio, Bedford, Mass.) in white HTRF low volume 384 well plates (Cisbio, Bedford, Mass.). Plates were then incubated at 37° C. in 5% CO2 for 10 minutes. For the agonist assay, forskolin was added to a final concentration of 4 μM. […] Test compounds were dissolved in DMSO and water, and then serially diluted to working concentrations such that the concentration of DMSO was less than 0.1%. Diluted test compounds were added at 2.5 μL per well, and plates were incubated at 37° C., and 5% CO2 for 15 minutes, and then at room temperature for 15 minutes. Next 5 μl/well of cAMP Eu-cryptate and 5 μl/well of anti-cAMP-d2 (both diluted 1:20 in lysis buffer) were added, and plates were incubated at room temperature for 1 hour. Following incubation, plates were read in a Synergy Neo2 multi-mode reader (Biotek, Winooski, Vt.). […] For the agonist assay, data was normalized using the maximal DAMGO response. Measurements were performed in triplicate and the dose response was fit using nonlinear regression.

Chain of human mOR (P35372 whole entry): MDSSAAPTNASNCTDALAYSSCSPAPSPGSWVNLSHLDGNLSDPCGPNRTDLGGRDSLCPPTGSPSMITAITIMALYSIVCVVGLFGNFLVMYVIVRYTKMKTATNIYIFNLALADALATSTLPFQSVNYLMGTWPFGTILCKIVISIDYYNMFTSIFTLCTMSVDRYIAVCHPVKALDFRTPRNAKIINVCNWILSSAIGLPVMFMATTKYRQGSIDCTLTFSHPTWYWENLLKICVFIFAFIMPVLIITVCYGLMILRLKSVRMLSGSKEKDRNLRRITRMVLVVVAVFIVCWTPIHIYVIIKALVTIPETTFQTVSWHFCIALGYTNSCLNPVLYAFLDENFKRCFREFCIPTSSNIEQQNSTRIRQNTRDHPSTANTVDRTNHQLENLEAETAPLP

| SMILES | IC50 |
| --- | --- |
| CN(C)[C@H](CNC(=O)CC(c1ccncc1)C1(C(F)(F)F)CC1)Cc1ccc(O)c(Cl)c1 (stereo partly drawn) [Compound 284, N-((S)-3-(3-chloro-4-hydroxyphenyl)-2-(dimethylamino)propyl)-3-(pyridin-4-yl)-3-(1-(trifluoromethyl)cyclopropyl)propanamide] | < 300 nM |
| CN[C@H](CNC(=O)C[C@@H](c1ccccc1)C1(C(F)(F)F)CC1)Cc1ccc(C(N)=O)cc1 [Compound 82, 4-((S)-2-(methylamino)-3-((S)-3-phenyl-3-(1-(trifluoromethyl)cyclopropyl)propanamido)propyl)benzamide] | > 3000 nM |
| Cc1cc(O)cc(C)c1C[C@@H](CNC(=O)C[C@H](CC1CC1)c1cccnc1)N(C)C [Compound 241, (S)-4-cyclopropyl-N-((S)-2-(dimethylamino)-3-(4-hydroxy-2,6-dimethylphenyl)propyl)-3-(pyridin-3-yl)butanamide] | < 300 nM |
| CN(C)[C@H](CNC(=O)C[C@H](c1cccnc1)C1(C(F)(F)F)CC1)Cc1cc(F)c2[nH]ncc2c1 [Compound 230, (R)-N-((S)-2-(dimethylamino)-3-(7-fluoro-1H-indazol-5-yl)propyl)-3-(pyridin-3-yl)-3-(1-(trifluoromethyl)cyclopropyl)propanamide] | < 300 nM |
| CNC(=O)c1ccc(C[C@@H](CNC(=O)C[C@@H](c2ccccn2)C2(C(F)(F)F)CC2)N(C)C)cc1F [Compound 153, 4-((S)-2-(dimethylamino)-3-((R)-3-(pyridin-2-yl)-3-(1-(trifluoromethyl)cyclopropyl)propanamido)propyl)-2-fluoro-N-methylbenzamide] | > 3000 nM |
| CNC(=O)c1ccc(C[C@@H](CNC(=O)C[C@@H](c2cncc(F)c2)C(C)(C)C)N(C)C)cc1F [Compound 151, 4-((S)-2-(dimethylamino)-3-((R)-3-(5-fluoropyridin-3-yl)-4,4-dimethylpentanamido)propyl)-2-fluoro-N-methylbenzamide] | 300 to 3000 nM |
| CN(C)[C@H](CNC(=O)C[C@H](c1cccnc1)C1(C(F)(F)F)CC1)Cc1ccc2[nH]ncc2c1 [Compound 213, (R)-N-((S)-2-(dimethylamino)-3-(1H-indazol-5-yl)propyl)-3-(pyridin-3-yl)-3-(1-(trifluoromethyl)cyclopropyl)propanamide] | < 300 nM |
| Cc1ncc([C@@H](CC(=O)NC[C@H](Cc2ccc(O)cc2)N(C)C)C2(C(F)(F)F)CC2)cn1 [Compound 312, (R)-N-((S)-2-(dimethylamino)-3-(4-hydroxyphenyl)propyl)-3-(2-methylpyrimidin-5-yl)-3-(1-(trifluoromethyl)cyclopropyl)propanamide] | < 300 nM |
| Cc1c(C[C@@H](CNC(=O)C[C@H](c2cccnc2)C2(C)CC2)N(C)C)ccc2[nH]ncc12 [Compound 199, (S)-N-((S)-2-(dimethylamino)-3-(4-methyl-1H-indazol-5-yl)propyl)-3-(1-methylcyclopropyl)-3-(pyridin-3-yl)propanamide] | < 300 nM |
| Cc1cc(O)ccc1C[C@@H](CNC(=O)C[C@H](c1cncs1)C1(C(F)(F)F)CC1)N(C)C [Compound 268, (S)-N-((S)-2-(dimethylamino)-3-(4-hydroxy-2-methylphenyl)propyl)-3-(thiazol-5-yl)-3-(1-(trifluoromethyl)cyclopropyl)propanamide] | < 300 nM |
| CC(C)[C@H](CC(=O)NC[C@H](Cc1ccc(O)cc1)N(C)C)c1cccnc1 [Compound 304, (S)-N-((S)-2-(dimethylamino)-3-(4-hydroxyphenyl)propyl)-4-methyl-3-(pyridin-3-yl)pentanamide] | < 300 nM |
| CCN(CC)[C@H](CNC(=O)C[C@@H](c1ccccc1)C(C)(C)C)Cc1ccc(C(=O)NC)c(F)c1 [Compound 166, 4-((S)-2-(diethylamino)-3-((R)-4,4-dimethyl-3-phenylpentanamido)propyl)-2-fluoro-N-methylbenzamide] | < 300 nM |
| Cc1ncc([C@@H](CC(=O)NC[C@H](Cc2ccc(C(N)=O)c(F)c2F)N(C)C)C2(C(F)(F)F)CC2)s1 [Compound 1, 4-((S)-2-(dimethylamino)-3-((S)-3-(2-methylthiazol-5-yl)-3-(1-(trifluoromethyl)cyclopropyl)propanamido)propyl)-2,3-difluorobenzamide] | < 300 nM |
| Cc1ccc([C@@H](CC(=O)NC[C@H](Cc2ccc(C(N)=O)c(F)c2F)N(C)C)C2(C(F)(F)F)CC2)cn1 [Compound 4, 4-((S)-2-(dimethylamino)-3-((R)-3-(6-methylpyridin-3-yl)-3-(1-(trifluoromethyl)cyclopropyl)propanamido)propyl)-2,3-difluorobenzamide] | < 300 nM |
| CN(C)[C@H](CNC(=O)C[C@H](c1cccnc1)C1(C(F)(F)F)CC1)Cc1ccc(O)cc1Cl [Compound 262, (R)-N-((S)-3-(2-chloro-4-hydroxyphenyl)-2-(dimethylamino)propyl)-3-(pyridin-3-yl)-3-(1-(trifluoromethyl)cyclopropyl)propanamide] | < 300 nM |
| CNC(=O)c1ccc(C[C@@H](CNC(=O)C[C@H](c2ccc(Cl)cc2)C2(C(F)(F)F)CC2)N(C)C)cc1F [Compound 107, 4-((S)-3-((R)-3-(4-chlorophenyl)-3-(1-(trifluoromethyl)cyclopropyl)propanamido)-2-(dimethylamino)propyl)-2-fluoro-N-methylbenzamide] | < 300 nM |
| CNC(=O)c1ccc(C[C@@H](CNC(=O)CC(c2cncc(F)c2)C2(C(F)(F)F)CC2)N(C)C)c(Cl)c1 (some centres unmarked) [Compound 116] | < 300 nM |
| Cc1ccc([C@@H](CC(=O)NC[C@H](Cc2ccc(C(N)=O)c(F)c2C)N(C)C)C2(C(F)(F)F)CC2)cn1 [Compound 46, 4-((S)-2-(dimethylamino)-3-((R)-3-(6-methylpyridin-3-yl)-3-(1-(trifluoromethyl)cyclopropyl)propanamido)propyl)-2-fluoro-3-methylbenzamide] | < 300 nM |
| Cc1cc(O)ccc1C[C@@H](CNC(=O)CC(c1ncc(Cl)cn1)C1(C(F)(F)F)CC1)N(C)C (stereo partly drawn) [Compound 274, 3-(5-chloropyridmidin-2-yl)-N-((S)-2-(dimethylamino)-3-(4-hydroxy-2-methylphenyl)propyl)-3-(1-(trifluoromethyl)cyclopropyl) propanamide] | < 300 nM |
| CN(C)[C@H](CNC(=O)C[C@H](c1ccncc1)C1(C(F)(F)F)CC1)Cc1ccc2[nH]ncc2c1 [Compound 209] | < 300 nM |
| CNC(=O)c1ccc(C[C@@H](CNC(=O)CC(c2ccc(Cl)cn2)C2(C(F)(F)F)CC2)N(C)C)c(Cl)c1 (stereo partly drawn) [Compound 122, 3-chloro-4-((2S)-3-(3-(5-chloropyridin-2-yl)-3-(1-(trifluoromethyl)cyclopropyl)propanamido)-2-(dimethylamino)propyl)-N-methylbenzamide] | < 300 nM |

Same assay, conditions: CHO Tag-lite human mOR stable cell line; forskolin 4 μM and DAMGO at EC90; read-out: mOR cAMP Antagonist Assay IC50

| SMILES | IC50 |
| --- | --- |
| CN(C)[C@H](CNC(=O)C[C@@H](CC1CC1)c1cncnc1)Cc1ccc(C(N)=O)c(F)c1 [Compound 64, 4-((S)-3-((R)-4-cyclopropyl-3-(pyrimidin-5-yl)butanamido)-2-(dimethylamino)propyl)-2-fluorobenzamide] | < 300 nM |
| CNC(=O)c1cc(C)c(C[C@@H](CNC(=O)C[C@H](c2ccc(Cl)cc2)C2(C(F)(F)F)CC2)N(C)C)c(C)c1 [Compound 106, 4-((S)-3-((R)-3-(4-chlorophenyl)-3-(1-(trifluoromethyl)cyclopropyl)propanamido)-2-(dimethylamino)propyl)-3,5-trimethylbenzamide] | > 3000 nM |
